According to patent US8394959B2, “Maleate salts of (E)-N-{4-[3-chloro-4-(2-pyridinylmethoxy)anilino]-3-cyano-7-ethoxy-6-quinolinyl)-4-(dimethylamino)-2-buteramide and crystalline forms thereof” (Wyeth LLC, priority 2007, dated 2013):
Values after ≈ are worked out from the molar mass of the structure shown. Like-named read-outs stand apart in the source and are kept apart here.

Legend:
[1] = system: emectic receptors in the stomach; test: Emectic receptor interaction / diarrhea in mammals; type: in vivo; conditions: in words
[2] = Solubility comparison of free base and maleate salt
[3] = Compound pharmacokinetics (systemic exposure) in rats; type: in vivo, rat; set-up: AUC/Dose: unit not given here; conditions: for AUC(0-t): read-out: AUC0-24
[4] = physchem; conditions: aqueous with cosolvent or surfactant or cyclodextrin
[5] = Water solubility and BCS classification of the free base; type: physicochemical
From the text: Pat. […] The compound is classified, based on the Biopharmaceutical Classification System, as a BCS Class IV compound (low water solubility and low permeability). […] The water solubility increases with decreasing pH as the compound becomes ionized. This compound is […] rate limiting. There is a need for a form of this compound with improved physicochemical properties.

[6] = Dynamic vapor sorption (DVS) hygroscopicity; type: physicochemical; conditions: DVS isotherm, FIG. 2; especially at 60% RH and above
From the text: The relative stability and hygroscopicity of the two crystalline forms of the maleate salt was studied in detail by dynamic vapor sorption (DVS).

[7] = Solid state stability in closed and open containers at 40° C. and 75% RH; type: physicochemical
From the text: Both Form I and Form II remained stable for 6 months under these conditions. […] Samples in the closed containers remained dry. HPLC purity analysis indicated no significant increase in degradation products in both open and closed conditions for up to 6 months.

[8] = Stability of crystalline forms of the reslurry at room temperature for 14 days; type: physicochemical; conditions: reslurry in Ethyl acetate
From the text: In one embodiment the re-slurry is allowed to stand for about 14 days.

[9] = plasma, oral, rat Male, 100 mg/kg, Day 10, mean (SE), N 3
[10] = plasma, rat Female, 30 mg/kg, Day 10, mean (SE), N 3
[11] = plasma, rat Male, 10 mg/kg, Day 10, mean (SE), N 3
[12] = plasma, rat Male, 30 mg/kg, Day 10, mean (SE), N 3
[13] = Closed Vial at 40° C./75% RH, 1 week in storage
[14] = Closed Vial at 40° C./75% RH, 2 weeks in storage
[15] = Closed Vial at 40° C./75% RH, 4 weeks in storage
[16] = Closed Vial at 40° C./75% RH, 12 weeks in storage
[17] = Closed Vial at 40° C./75% RH, 24 weeks in storage
[18] = Closed Vial at 40° C./75% RH, Initial
[19] = Open Vial at 40° C./75% RH, 1 week in storage
[20] = Open Vial at 40° C./75% RH, 2 weeks in storage
[21] = Open Vial at 40° C./75% RH, 4 weeks in storage
[22] = Open Vial at 40° C./75% RH, 12 weeks in storage
[23] = Open Vial at 40° C./75% RH, 24 weeks in storage
[24] = Open Vial at 40° C./75% RH, Initial

CCOc1cc2ncc(C#N)c(Nc3ccc(OCc4ccccn4)c(Cl)c3)c2cc1NC(=O)/C=C/CN(C)C [free base]
emectic receptor interaction / diarrhea [1]: giving rise to diarrhea in mammals
pH of solution in 2% Tween 80 in water ([2]; solvent 2% Tween 80 in water): (pH 6.4)
pH of solution in Water ([2]; solvent water): (pH 8.2)
Cmax [3, 9]: 3820 ng/mL
AUC(0-t) [3, 9]: 58300 ng·h/mL
Cmax [3, 10]: 2440 ng/mL
AUC(0-t) [3, 10]: 25000 ng·h/mL
Cmax [3, 11]: 814 ng/mL
AUC(0-t) [3, 11]: 6780 ng·h/mL
Cmax ([3]; plasma, rat Male, 20 mg/kg, Day 1, mean (SE), N 4): 1010 ng/mL
AUC(0-inf) ([3]; plasma, rat Male, 20 mg/kg, Day 1, mean (SE), N 4, footnote a: AUC0-∞): 8510 ng·h/mL
Cmax [3, 12]: 1650 ng/mL
AUC(0-t) [3, 12]: 20400 ng·h/mL
systemic availability ([3]; rat): 20%
AUC/Dose ([3]; rat Female, 30 mg/kg, Day 10, mean (SE), N 3): 832 (145)
AUC/Dose ([3]; rat Male, 10 mg/kg, Day 10, mean (SE), N 3): 678 (64)
AUC/Dose ([3]; rat Male, 20 mg/kg, Day 1, mean (SE), N 4): 426 (81)
AUC/Dose ([3]; rat Male, 30 mg/kg, Day 10, mean (SE), N 3): 680 (78)
AUC/Dose ([3]; rat Male, 100 mg/kg, Day 10, mean (SE), N 3): 583 (125)
solubility [4]: 50 µg/mL (≈ 89.8 µM)
Biopharmaceutical Classification System class ([5]; low water solubility and low permeability): BCS Class IV
solubility ([5]; water, at about pH 7): ~1 µg/mL (≈ 1.8 µM)

CCOc1cc2ncc(C#N)c(Nc3ccc(OCc4ccccn4)c(Cl)c3)c2cc1NC(=O)/C=C/CN(C)C.O=C(O)/C=C\C(=O)O [Form I]
relative humidity at which moisture is gained [6]: above 40 % relative humidity (RH)
Moisture [7, 13]: 0.39%
Potency (dry basis) [7, 13]: 100.46%
Potency as is [7, 13]: 100.07%
Total impurities [7, 13]: 0.57%
Moisture [7, 14]: 0.34%
Potency (dry basis) [7, 14]: 100.38%
Potency as is [7, 14]: 100.03%
Total impurities [7, 14]: 0.64%
Moisture [7, 15]: 0.22%
Potency (dry basis) [7, 15]: 97.09%
Potency as is [7, 15]: 96.87%
Total impurities [7, 15]: 0.61%
Moisture [7, 16]: 0.46%
Potency (dry basis) [7, 16]: 100.67%
Potency as is [7, 16]: 100.21%
Total impurities [7, 16]: 0.66%
Moisture [7, 17]: 0.16%
Potency (dry basis) [7, 17]: 99.12%
Potency as is [7, 17]: 98.96%
Total impurities [7, 17]: 0.68%
Moisture [7, 18]: 0.35%
Potency (dry basis) [7, 18]: 100.85%
Potency as is [7, 18]: 100.50%
Total impurities [7, 18]: 0.57%
Moisture [7, 19]: 2.82%
Potency (dry basis) [7, 19]: 102.01%
Potency as is [7, 19]: 99.13%
Total impurities [7, 19]: 0.55%
Moisture [7, 20]: 2.86%
Potency (dry basis) [7, 20]: 100.37%
Potency as is [7, 20]: 97.50%
Total impurities [7, 20]: 0.65%
Moisture [7, 21]: 2.74%
Potency (dry basis) [7, 21]: 97.96%
Potency as is [7, 21]: 95.27%
Total impurities [7, 21]: 0.58%
Moisture [7, 22]: 2.98%
Potency (dry basis) [7, 22]: 101.13%
Potency as is [7, 22]: 98.12%
Total impurities [7, 22]: 0.65%
Moisture [7, 23]: 2.79%
Potency (dry basis) [7, 23]: 100.01%
Potency as is [7, 23]: 97.22%
Total impurities [7, 23]: 0.69%
Moisture [7, 24]: 0.35%
Potency (dry basis) [7, 24]: 100.85%
Potency as is [7, 24]: 100.50%
Total impurities [7, 24]: 0.57%
time remained stable ([7]; closed and open containers at 40° C. and 75% RH): 6 months
water uptake in open containers ([7]; open containers at 40° C. and 75% RH): rapidly absorbed one mole of water to form the monohydrate form
Final Form, wet cake [8]: I + some II
